# Measurements taken from PMC7410094 (ACS chemical biology, 2020).
# Key:
# MelBEC = MelBEC (Escherichia coli, UniProt P02921); assay: Trp to dansyl FRET; format: binding; conditions: MTG-E13 micelles (response lost in DDM); active site
# MelBSt = MelBSt (Salmonella enterica, UniProt P30878); assay: Trp to dansyl FRET; format: binding; conditions: DDM or MTG-E13 micelles; active site
# β2AR = β2AR (Homo sapiens, UniProt P07550); assay: radioligand binding assay; conditions: labelled compound; antagonist; DDM or MTG micelles at CMC+0.2 wt%
# β2AR, sequence (P07550 whole entry): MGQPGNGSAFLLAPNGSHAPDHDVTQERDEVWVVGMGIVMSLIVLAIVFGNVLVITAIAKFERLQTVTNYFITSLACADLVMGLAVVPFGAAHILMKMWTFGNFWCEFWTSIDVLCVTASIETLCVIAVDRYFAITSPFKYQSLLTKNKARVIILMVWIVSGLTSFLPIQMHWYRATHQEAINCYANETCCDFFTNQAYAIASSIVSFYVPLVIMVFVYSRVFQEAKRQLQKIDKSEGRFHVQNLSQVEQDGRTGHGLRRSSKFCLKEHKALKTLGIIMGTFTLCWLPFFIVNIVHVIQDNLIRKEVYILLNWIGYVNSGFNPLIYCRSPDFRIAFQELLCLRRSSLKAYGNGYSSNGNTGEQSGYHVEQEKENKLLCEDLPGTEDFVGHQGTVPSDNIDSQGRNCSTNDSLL
# MelBSt, sequence (P30878 whole entry): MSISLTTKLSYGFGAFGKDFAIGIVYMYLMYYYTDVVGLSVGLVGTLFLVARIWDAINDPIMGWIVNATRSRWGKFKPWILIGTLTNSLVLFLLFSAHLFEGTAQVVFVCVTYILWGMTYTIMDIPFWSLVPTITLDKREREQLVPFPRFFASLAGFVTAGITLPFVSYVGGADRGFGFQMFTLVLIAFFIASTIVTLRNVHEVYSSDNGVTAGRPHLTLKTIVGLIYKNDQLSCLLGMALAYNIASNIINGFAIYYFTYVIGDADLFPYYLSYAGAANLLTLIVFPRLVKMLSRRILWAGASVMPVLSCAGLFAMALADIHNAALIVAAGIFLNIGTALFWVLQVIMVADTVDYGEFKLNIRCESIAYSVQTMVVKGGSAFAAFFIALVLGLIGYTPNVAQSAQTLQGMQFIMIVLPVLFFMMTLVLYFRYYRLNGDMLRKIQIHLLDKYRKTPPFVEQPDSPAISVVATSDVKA
# MelBEC, sequence (P02921 2-473): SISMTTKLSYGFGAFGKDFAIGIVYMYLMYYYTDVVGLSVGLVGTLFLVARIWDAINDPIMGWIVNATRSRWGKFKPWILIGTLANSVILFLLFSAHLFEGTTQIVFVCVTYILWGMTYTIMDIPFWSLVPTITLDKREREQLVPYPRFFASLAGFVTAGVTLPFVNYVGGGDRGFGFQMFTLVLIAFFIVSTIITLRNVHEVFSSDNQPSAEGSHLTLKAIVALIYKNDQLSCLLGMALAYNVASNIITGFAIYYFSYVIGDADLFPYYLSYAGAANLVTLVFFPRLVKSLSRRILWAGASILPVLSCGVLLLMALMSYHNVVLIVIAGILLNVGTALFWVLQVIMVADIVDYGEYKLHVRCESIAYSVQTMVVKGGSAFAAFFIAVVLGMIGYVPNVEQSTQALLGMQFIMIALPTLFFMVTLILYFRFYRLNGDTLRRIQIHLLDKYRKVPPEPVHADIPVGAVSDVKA
Compound,Trp to dansyl FRET (MelBEC),Trp to dansyl FRET (MelBSt),radioligand binding assay (β2AR)
"CN(C)c1cccc2c(S(=O)(=O)NCCS[C@@H]3O[C@H](CO)[C@H](O)[C@H](O)[C@H]3O)cccc12 [D^2G, 2’-(N-dansyl)aminoalkyl-1-thio-β-D-galactopyranoside]","MTG-E13, was effective at preserving the functionality of this less stable MelB homologue",DDM-solubilized MelBSt showed initial increase and subsequent decrease in the fluorescence signal,–
CCCc1ccccc1OCC(O)CNC(C)C (stereo not drawn) [[^3H]-dihydroalprenolol],–,–,the MTGs led to [^3H]-DHA-binding capability of the receptor comparable to DDM
